Key:
Type in all cases: cell-based, human
[1] = tested on: Venular endothelial cells; assay: BioMAP Diversity PLUS 4H system (Th2 type vascular inflammation); details: 6.7 μM
Protocol: This study examined activities of small molecules discovered in dolphin serum that had protective profiles against diseases of aging which can impact quality of life and longevity. These molecules were tested across 12 human primary cell-based systems as part of DiscoverX's BioMAP Diversity Plus program. These systems are designed to model complex human tissue and disease biology of the vasculature, skin, lung, and inflammatory tissues. Quantitative measurements of biomarker activities across this broad panel, along with comparative analysis of biological activities of known bioactive agents were used to predict and compare the efficacy and function of the four compounds. […]
(§1) Each test agent generates a signature BioMAP profile that is created from the changes in protein biomarker readouts within individual system environments. Biomarker readouts (7-17 per system) are selected for therapeutic and biological relevance, are predictive for disease outcomes or specific drug effects and are validated using agents with known mechanism of action (MoA). Each readout is measured quantitatively by immune-based methods that detect protein (e.g., ELISA) or functional assays that measure proliferation and viability. BioMAP readouts are diverse and include cell surface receptors, cytokines, chemokines, matrix molecules and enzymes. […]

[2] = tested on: Venular endothelial cells, peripheral blood mononuclear cells; assay: BioMAP Diversity PLUS SAg system (T cell stimulation, Th1 type chronic inflammation); details: SAg system; 6.7 μM
In short: (§2)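 Primary human cells from healthy donors were stimulated with cytokines or growth factors to model tissue inflammation or remodelling. Compounds were tested at 740 nm, 2.2, 6.7 and 20 μM. Biomarker readouts were measured by immune-based protein detection (e.g., ELISA) or by proliferation/viability assays.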

[3] = tested on: Peripheral blood mononuclear cells, B cells; assay: BioMAP Diversity PLUS BT system (T cell dependent B cell activation); details: BT system
In short: (§3)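 Human primary cells from healthy donors, stimulated to model each disease setting, were exposed to compounds at 740 nm and 2.2, 6.7 and 20 μM. Readouts are 7-17 protein biomarkers per system measured by ELISA-type immunoassays, plus proliferation and viability assays.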

[4] = tested on: Bronchial epithelial cells; assay: BioMAP Diversity PLUS BE3C system (Th1 type lung inflammation)
Protocol: (§4) This study examined activities of small molecules discovered in dolphin serum that had protective profiles against diseases of aging which can impact quality of life and longevity. These molecules were tested across 12 human primary cell-based systems as part of DiscoverX's BioMAP Diversity Plus program. These systems are designed to model complex human tissue and disease biology of the vasculature, skin, lung, and inflammatory tissues. Quantitative measurements of biomarker activities across this broad panel, along with comparative analysis of biological activities of known bioactive agents were used to predict and compare the efficacy and function of the four compounds. Compounds were tested at four concentrations (740 nm and 2.2, 6.7 and 20 μM).
BioMAP panels consist of human primary cell-based systems designed to model different aspects of the human body in an in vitro format. The 12 systems in the Diversity PLUS panel allow test agent characterization in an unbiased way across a broad set of systems modeling various human disease states. BioMAP systems are constructed with one or more primary cell types from healthy human donors, with stimuli (such as cytokines or growth factors) added to capture relevant signaling networks that naturally occur in human tissue or pathological conditions. Vascular biology is modeled in both a Th1 (3C system) and a Th2 (4H system) inflammatory environment, as well as in a Th1 inflammatory state specific to arterial smooth muscle cells (CASM3C system). Additional systems recapitulate aspects of the systemic immune response including monocyte-driven Th1 inflammation (LPS system) or T cell stimulation (SAg system), chronic Th1 inflammation driven by macrophage activation (lMphg system) and the T cell-dependent activation of B cells that occurs in germinal centers (BT system). The BE3C system (Th1) and the BF4T system (Th2) represent airway inflammation of the lung, while the MyoF system models myofibroblast-lung tissue remodeling. Lastly, skin biology is addressed in the KF3CT system modeling Th1 cutaneous inflammation and the HDF3CGF system modeling wound healing.
Each test agent generates a signature BioMAP profile that is created from the changes in protein biomarker readouts within individual system environments. Biomarker readouts (7-17 per system) are selected for therapeutic and biological relevance, are predictive for disease outcomes or specific drug effects and are validated using agents with known mechanism of action (MoA). Each readout is measured quantitatively by immune-based methods that detect protein (e.g., ELISA) or functional assays that measure proliferation and viability. BioMAP readouts are diverse and include cell surface receptors, cytokines, chemokines, matrix molecules and enzymes. In total, the Diversity PLUS panel contains 148 biomarker readouts that capture biological changes that occur within the physiological context of the particular BioMAP system. Specific BioMAP activities have been correlated to in vivo biology, and multiparameter BioMAP profiles have been used to distinguish compounds based on MoA and target selectivity across diverse physiological systems.
The Diversity PLUS panel allows test agent characterization in an unbiased way across a broad set of systems modeling various human disease states. These systems are designed to model complex human tissue and disease biology of the vasculature, skin, lung, and inflammatory tissues. Quantitative measurements of 148 biomarker activities across this broad panel, along with comparative analysis of biological activities from known bioactive agents, were used to predict and compare the efficacy and function of each selected compound at four concentrations (740 nm and 2.2, 6.7 and 20 μM). […]

Dermal fibroblasts = assay: BioMAP Diversity PLUS HDF3CGF system (wound healing and matrix/tissue remodeling); details: HDF3CGF system; 6.7 μM
In short: as §3

[5] = tested on: Keratinocytes, dermal fibroblasts; assay: BioMAP Diversity PLUS KF3CT system (Th1 type cutaneous inflammation)
Protocol: as §4
BioMAP panels consist of human primary cell-based systems designed to model different aspects of the human body in an in vitro format. The 12 systems in the Diversity PLUS panel allow test agent characterization in an unbiased way across a broad set of systems modeling various human disease states. […]
as §1, with “enzymes. In total, the Diversity PLUS panel contains 148 biomarker readouts that capture biological changes that occur within the physiological context of the particular BioMAP system.” for “enzymes.”

Lung fibroblasts = assay: BioMAP Diversity PLUS MyoF system (myofibroblast differentiation and tissue remodeling)
In short: as §2

[6] = tested on: Macrophages, venular endothelial cells; assay: BioMAP Diversity PLUS lMphg system (Th1 type chronic inflammation, macrophage activation); details: /Mphg system
In short: as §2

CCCCCCCCCCCCCCC(=O)O[C@H](CC(=O)[O-])C[N+](C)(C)C [Pentadecanoylcarnitine (C15), pentadecanoylcarnitine]
Significant log10 reduction compared to nontreated controls: Vascular endothelial growth factor s (VEGFR2) [1]: −0.11 log10 | Significant log10 reduction compared to nontreated controls: E-selectin [2]: −0.11 log10 | Significant log10 reduction compared to nontreated controls: T cell proliferation [2]: −0.17 log10 | Significant log10 reduction compared to nontreated controls: Secreted interleukin 2 (IL-2) ([3]; 2.2 μM): −0.11 log10 | Significant log10 reduction compared to nontreated controls: Secreted interleukin 6 (IL-6) ([3]; 6.7 μM): −0.13 log10 | Significant log10 reduction compared to nontreated controls: Tumor necrosis factor alpha (TNFα) ([3]; 6.7 μM): −0.10 log10 | Significant log10 reduction compared to nontreated controls: Interferon-inducible T cell alpha chemoattractant (I-TAC)/CXCL11 ([4]; 0.7 μM): −0.13 log10 | Significant log10 reduction compared to nontreated controls: Interleukin 1 alpha (IL-1α) ([4]; 0.7 μM): −0.06 log10 | Significant log10 reduction compared to nontreated controls: Interferon-inducible T cell alpha chemoattractant (I-TAC)/CXCL11 ([4]; 2.2 μM): −0.17 log10 | Significant log10 reduction compared to nontreated controls: Interleukin 1 alpha (IL-1α) ([4]; 2.2 μM): −0.06 log10 | Significant log10 reduction compared to nontreated controls: Matrix metalloproteinase 1 (MMP-1) ([4]; 2.2 μM): −0.05 log10 | Significant log10 reduction compared to nontreated controls: Matrix metalloproteinase 9 (MMP-9) ([4]; 2.2 μM): −0.08 log10 | Significant log10 reduction compared to nontreated controls: Plasminogen activation inhibitor 1 (PAI-1) ([4]; 2.2 μM): −0.08 log10 | Significant log10 reduction compared to nontreated controls: Tissue plasminogen activator (tPA) ([4]; 2.2 μM): −0.11 log10 | Significant log10 reduction compared to nontreated controls: Human leukocyte antigen-DR isotype (HLA-DR) ([4]; 6.7 μM): −0.63 log10 | Significant log10 reduction compared to nontreated controls: Interferon gamma-induced protein 10 (IP-10)/CXCL10 ([4]; 6.7 μM): −0.1 log10 | Significant log10 reduction compared to nontreated controls: Interferon-inducible T cell alpha chemoattractant (I-TAC)/CXCL11 ([4]; 6.7 μM): −0.54 log10 | Significant log10 reduction compared to nontreated controls: Interleukin 1 alpha (IL-1α) ([4]; 6.7 μM): −0.19 log10 | Significant log10 reduction compared to nontreated controls: Interleukin 8 (IL-8)/CXCL8 ([4]; 6.7 μM): −0.21 log10 | Significant log10 reduction compared to nontreated controls: Matrix metalloproteinase 1 (MMP-1) ([4]; 6.7 μM): −0.27 log10 | Significant log10 reduction compared to nontreated controls: Matrix metalloproteinase 9 (MMP-9) ([4]; 6.7 μM): −0.34 log10 | Significant log10 reduction compared to nontreated controls: Monokine induced by gamma interferon (MIG)/CXCL9 ([4]; 6.7 μM): −0.60 log10 | Significant log10 reduction compared to nontreated controls: Plasminogen activation inhibitor 1 (PAI-1) ([4]; 6.7 μM): −0.24 log10 | Significant log10 reduction compared to nontreated controls: Tissue plasminogen activator (tPA) ([4]; 6.7 μM): −0.43 log10 | Significant log10 reduction compared to nontreated controls: Matrix metalloproteinase 1 (MMP-1) (Dermal fibroblasts): −0.12 log10 | Significant log10 reduction compared to nontreated controls: Interferon gamma-induced protein 10 (IP-10)/CXCL10 ([5]; 0.7 μM): −0.14 log10 | Significant log10 reduction compared to nontreated controls: Interferon gamma-induced protein 10 (IP-10)/CXCL10 ([5]; 2.2 μM): −0.09 log10 | Significant log10 reduction compared to nontreated controls: Interferon gamma-induced protein 10 (IP-10)/CXCL10 ([5]; 6.7 μM): −0.10 log10 | Significant log10 reduction compared to nontreated controls: Alpha smooth muscle actin (αSMA) (Lung fibroblasts; 0.7 μM): −0.16 log10 | Significant log10 reduction compared to nontreated controls: Alpha smooth muscle actin (αSMA) (Lung fibroblasts; 2.2 μM): −0.18 log10 | Significant log10 reduction compared to nontreated controls: Alpha smooth muscle actin (αSMA) (Lung fibroblasts; 6.7 μM): −0.26 log10 | Significant log10 reduction compared to nontreated controls: Monocyte chemoattractant protein 1 (MCP-1) ([6]; 2.2 μM): −0.17 log10 | Significant log10 reduction compared to nontreated controls: Monocyte chemoattractant protein 1 (MCP-1) ([6]; 6.7 μM): −0.25 log10 | Significant log10 reduction compared to nontreated controls: Secreted interleukin 10 (IL-10) ([6]; 6.7 μM): −0.13 log10
